Laboratory results reported in US10570412B2, “Method of increasing resistance against soybean rust in transgenic plants by increasing the scopoletin content” (BASF PLANT SCIENCE COMPANY GMBH, priority 2015, dated 2020).
Entries after “also recorded” stand apart in the source; their conditions may differ.

Key:
Phakopsora pachyrhizi [1] = assay: Soybean rust diseased leaf area on scopoletin-treated soybean plants; type: in vivo, Phakopsora pachyrhizi on soybean
Fusarium graminearum = type: cell-based; conditions: 1 mM scopoletin in PDA, compared with PDA+methanol
Phakopsora pachyrhizi [2] = assay: In vitro germination test of Phakopsora pachyrhizi spores on glass slides; type: cell-based; conditions: 6 h
Arabidopsis = assay: Phytotoxic effect of scopoletin in Arabidopsis; type: in vivo; conditions: Arabidopsis plants treated with 1 mM scopoletin
Protocol: For pre-treatment experiments Arabidopsis plants were sprayed with—1 mM scopoletin (solved in H2O, 0.01% Tween-20); incubated for 6 h at short day conditions and subsequently inoculated with 1 mg/ml P. pachyrhizi uredospores. For co-treatment experiments spores of Phakopsora pachyrhizi were solved in 0.01% Tween-20 supplemented with 1 mM scopoletin. Following inoculation plants were covered with moistened plastic domes to ensure high humidity and incubated at short day conditions (see above). 24 h later plastic domes were removed and plants incubated at the same conditions for another 24 h. Leaves were harvested 2 dpi and destained on tissue soaked with a saturated (2.5 g/ml) chloralhydrate solution. Germination and penetration on destained leaves was determined by quantitative microscopic analysis.

Phakopsora pachyrhizi [3] = assay: In vivo spore germination test on Arabidopsis leaves; design: species or system Phakopsora pachyrhizi on Arabidopsis thaliana; conditions: 1 mM scopoletin, assessed 48 h after infection
soybean = assay: Phytotoxic effect of scopoletin in soybean; conditions: soybean plants treated with scopoletin

In the case of `COc1cc2ccc(=O)oc2cc1O` [scopoletin], the “diseased leaf area caused by Phakopsora pachyrhizi infection” value (“diseased leaf area caused” below) (Phakopsora pachyrhizi [1]; soy plants, 1 mM scopoletin, co-application, primary, first and second trifoliate leaves, 12 dpi) is reported as “drastically reduced formation of infected leaf area; also recorded: strongly reduced”, the “diseased leaf area caused” value (Phakopsora pachyrhizi [1]; soy plants, 1 mM scopoletin, pre-treatment 6 h before inoculation, primary, first and second trifoliate leaves, 12 dpi) is reported as “drastically reduced formation of infected leaf area; also recorded: strongly reduced” and the “diseased leaf area caused” value (Phakopsora pachyrhizi [1]; soybean leaves, co-application of 10 μM, 100 μM or 1 mM scopoletin, dose dependent) is reported as “strongly reduced in a dose dependent manner”. The “reduction of the Fusarium graminearum growth rate per day” value (Fusarium graminearum) was 61%, the “germination and appressorium formation of Phakopsora pachyrhizi spores” value (Phakopsora pachyrhizi [2]; 10 μM, 100 μM, 500 μM and 1 mM scopoletin in water, glass slides, dose dependent) was “decreases the germination and appressoria formation in a dose dependent manner; also recorded: strongly inhibited” and the spore germination in-vitro (Phakopsora pachyrhizi [2]; 1 mM scopoletin) was “completely abolishes spore germination”. The “phytotoxic effect leading to pleiotropic effects” value (Arabidopsis) was “never observed any phytotoxic effect”, the “germination of Phakopsora pachyrhizi spores on Arabidopsis leaves” value (shortened to “germination … on Arabidopsis leaves”) (Phakopsora pachyrhizi [3]; co-application with inoculation) was “drastically reduced formation of germinated spores” and the “germination … on Arabidopsis leaves” value (Phakopsora pachyrhizi [3]; co-application with inoculation, listed as Scopoletin) was “strongly inhibited”. The “germination … on Arabidopsis leaves” value (Phakopsora pachyrhizi [3]; pre-treatment 6 h before inoculation) was “drastically reduced formation of germinated spores”, the “germination … on Arabidopsis leaves” value (Phakopsora pachyrhizi [3]; pre-treatment 6 h before inoculation, listed as Scopoletin) was “strongly inhibited” and the “phytotoxic effect leading to pleiotropic effects” value (soybean) was “never observed”.
